# Data reported in patent publication US7244753B2, “Cyclooxygenase-2 selective inhibitors, compositions and methods of use” (NitroMed, Inc., priority 2002, dated 2007).
# How the values were obtained:
# Human COX-1 = target: T1, Human COX-1 (Homo sapiens, UniProt P23219); assay: COX-1 enzyme activity in human whole blood (A23187-stimulated, thromboxane B2 EIA); assay type: cell-based; settings: 100 μM test compound
# T1 construct: Human blood (≈50 mL) from male or female donors who had not received any aspirin or NSAIDs for 14 days was collected; endogenous in cells; host or cells: human whole blood from donors, heparinised, stimulated with calcium ionophore A23187
# Experimental: (§1) The assay for COX-1 and COX-2 enzyme activity, in the human whole blood was performed as described in Brideau et al., Inflamm Res., 45: 68-74 (1996)). Human blood (≈50 mL) from male or female donors who had not received any aspirin or NSAIDs for 14 days was collected at two local area blood donor centers and placed in polypropylene syringes containing sodium heparin (20 units per mL blood, final concentration). The blood was transported to the laboratory on ice packs and used within 1.5 hours of collection. Upon receipt in the laboratory, the blood was allowed to come to room temperature for 15 minutes prior to distribution in 1 mL aliquots per well of 24 well tissue culture plates. The plates were then placed on a gently rotating platform shaker in a 5% CO2 incubator at 37° C. for 15 minutes. Test compounds were dissolved in DMSO, at 1000 fold the final desired concentration, and further diluted, as indicated, in DMSO. One μL of each dilution of the test compound was added per well, in duplicate wells; wells not receiving test compound (e.g., basal, background or control wells) received 1 μL DMSO.
# (§2) To induce COX-2, lipopolysaccharide (LPS) from E. coli (LPS, serotype 026:B6 or serotype 0127:B8, Sigma Chemical Co., St. Louis, Mo., Catalogue No. L3755 or L3129, respectively) was added at 10 μg/mL (2 μL of 5 mg/mL LPS in DMSO) to appropriate wells 15 minutes after the addition of the test compound. (Basal or background wells not incubated with LPS received 2 μL of DMSO.) For the stimulation of COX-1, the calcium ionophore, A23187 (free acid from Sigma Chemical Co., St. Louis, Mo., Catalogue No. C7522) was added at 25 μM (1 μL of 25 mM stock in DMSO) to separate wells 4.5 hours after the addition of the test compound. (Again, basal, background or control wells not stimulated with A23187 received 1 μL of DMSO.) At 5 hours after the addition of the test compound, all incubations were terminated by placement on ice and the addition of 2 mM EGTA (100 μL of 20 mM EGTA, tetrasodium, in PBS (phosphate buffered saline) without Ca^++ and Mg^++, pH 7.2)). The resulting solutions, were transferred by polyethylene transfer pipettes to 15 mL polypropylene centrifuge tubes and centrifuged at 1200 g for 10 minutes at 4° C. One hundred μL of plasma was removed from each blood sample and added to 1 mL of methanol in new 15 mL polypropylene centrifuge tubes, vortexed, and stored overnight at −20° C. The next day, the samples were centrifuged at 2000 g for 10 minutes at 4° C. and the supernatants transferred to glass tubes and evaporated to dryness. The samples were assayed for thromboxane B2 using EIA kits supplied by Cayman Chemical Co. (Ann Arbor, Mich., Catalogue No. 519031) in duplicate wells after reconstitution with EIA Buffer and appropriate dilution (2000 fold for COX-1 and 500 fold for Cox-2 samples).
# The % inhibition for COX-1 and COX-2 enzyme activity in human whole blood by the test compounds, at the indicated concentrations, are given in Table 1.
# Human COX-2 = target: T2, Human COX-2 (Homo sapiens, UniProt P35354); assay: COX-2 enzyme activity in human whole blood (LPS-induced, thromboxane B2 EIA); assay type: cell-based; settings: for inhibition at 1 µM: 1 μM test compound; for inhibition at 10 µM: 10 μM test compound
# T2 construct: Human blood (≈50 mL) from male or female donors who had not received any aspirin or NSAIDs for 14 days was collected; endogenous in cells; host or cells: human whole blood from donors, heparinised, COX-2 induced with E. coli LPS
# T2 sequence (P35354 18-604): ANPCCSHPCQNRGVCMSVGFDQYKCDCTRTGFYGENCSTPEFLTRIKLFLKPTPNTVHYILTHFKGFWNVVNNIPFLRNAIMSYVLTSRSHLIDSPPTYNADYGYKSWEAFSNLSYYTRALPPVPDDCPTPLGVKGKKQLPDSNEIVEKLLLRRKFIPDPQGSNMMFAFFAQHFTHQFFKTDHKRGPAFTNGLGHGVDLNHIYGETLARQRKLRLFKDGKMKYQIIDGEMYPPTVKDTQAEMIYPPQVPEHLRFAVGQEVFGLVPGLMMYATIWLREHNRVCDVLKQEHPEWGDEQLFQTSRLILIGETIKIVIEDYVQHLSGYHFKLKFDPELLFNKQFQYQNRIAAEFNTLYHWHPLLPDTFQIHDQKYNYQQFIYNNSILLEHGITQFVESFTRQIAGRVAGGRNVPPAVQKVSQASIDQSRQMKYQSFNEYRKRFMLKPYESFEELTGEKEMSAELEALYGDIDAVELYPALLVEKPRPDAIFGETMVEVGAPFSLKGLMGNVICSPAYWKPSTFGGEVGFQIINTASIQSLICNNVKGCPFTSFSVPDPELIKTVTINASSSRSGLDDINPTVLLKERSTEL
# Experimental: as §1, with “Human” for “The assay for COX-1 and COX-2 enzyme activity, in the human whole blood was performed as described in Brideau et al., Inflamm Res., 45: 68-74 (1996)). Human”
# as §2, with “(Basal” for “To induce COX-2, lipopolysaccharide (LPS) from E. coli (LPS, serotype 026:B6 or serotype 0127:B8, Sigma Chemical Co., St. Louis, Mo., Catalogue No. L3755 or L3129, respectively) was added at 10 μg/mL (2 μL of 5 mg/mL LPS in DMSO) to appropriate wells 15 minutes after the addition of the test compound. (Basal”, “dryness.” for “dryness. The samples were assayed for thromboxane B2 using EIA kits supplied by Cayman Chemical Co. (Ann Arbor, Mich., Catalogue No. 519031) in duplicate wells after reconstitution with EIA Buffer and appropriate dilution (2000 fold for COX-1 and 500 fold for Cox-2 samples).”
# [1] = system: Rat Carrageenan Air-Pouch; assay: Rat carrageenan air-pouch; assay type: in vivo; settings: 45 μmol/kg by oral intubation 1 hour prior to carrageenan
# Experimental: The carrageenan air pouch model was performed as described by Sedgwick, A. D., et al., Agents Actions 18, 429-438, (1986) and Masferrer et al., Proc. Natl. Acad. Sci. 91, 3228-3232 (1994). Air pouches were produced by subcutaneous injection of 20 ml of sterile air on day (−6) into the intrascapular area of the back of the anesthesia rat (male CD, Charles River, 175-200 g). An additional 10 mL of sterile air was injected into the pouch 3 days later to keep the space open and to assist in the development of the interior membrane. Six days after the initial air injection, 1 mL of a 1% solution of carrageenan (Sigma, lambda fraction) dissolved in pyrogen-free saline was injected directly into the pouch to produce an inflammatory response. The test compound in vehicle (3 mL/rat, 0.5% Methocel) was administered by oral intubation 1 hour prior to carrageenan injection into the inflammatory pouch. After 4 hours the exudate was removed by pipette into a calibrated centrifuge tube and the volume measured. The number of leukocytes in the exudate was determined by cell counting with a Beckman Coulter Particle Counter with the lower threshold set to exclude red blood cells. The exudate samples were assayed without further processing for PGE2 (prostaglandin E2) using PGE2 EIA kit-Monoclonal, friom Cayman Chemical Co. (Ann Arbor, Mich., Catalogue No. 514010). […]
# T1 sequence (P23219 24-599): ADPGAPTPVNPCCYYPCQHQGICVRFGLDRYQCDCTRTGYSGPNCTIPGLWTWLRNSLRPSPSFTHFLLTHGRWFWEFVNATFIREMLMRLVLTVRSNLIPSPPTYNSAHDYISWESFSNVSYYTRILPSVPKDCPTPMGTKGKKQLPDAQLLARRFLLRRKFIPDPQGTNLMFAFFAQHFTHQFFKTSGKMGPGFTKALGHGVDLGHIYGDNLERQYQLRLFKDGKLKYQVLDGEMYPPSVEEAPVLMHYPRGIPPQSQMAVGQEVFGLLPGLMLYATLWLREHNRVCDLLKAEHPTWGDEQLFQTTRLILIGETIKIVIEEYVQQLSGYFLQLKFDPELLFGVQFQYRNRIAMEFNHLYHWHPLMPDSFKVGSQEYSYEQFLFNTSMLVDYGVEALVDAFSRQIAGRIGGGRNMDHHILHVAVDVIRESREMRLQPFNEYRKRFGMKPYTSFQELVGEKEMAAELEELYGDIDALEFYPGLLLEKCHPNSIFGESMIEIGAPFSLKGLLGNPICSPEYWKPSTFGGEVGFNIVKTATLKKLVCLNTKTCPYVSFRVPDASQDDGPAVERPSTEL
inhibition at 100 µM (Human COX-1) [%],inhibition at 1 µM (Human COX-2) [%],inhibition at 10 µM (Human COX-2) [%],melting point [°C],Compound,PGE-2 (% Inhibition at @ 45 μmol/kg) ([1]; exudate PGE2 after 4 hours) [%],Cell Infiltration (% inhibition @ 45 μmol/kg) ([1]; exudate leukocytes after 4 hours) [%]
70,20,75,,"CS(=O)(=O)c1ccc(-c2cc(COCCO[N+](=O)[O-])nn2CC2CCCCC2)cc1 [Example 2f, 4-(1-(Cyclohexylmethyl)-3-((2-(nitrooxy)ethoxy)methyl)pyrazol-5-yl)-1-(methylsulfonyl)benzene]",85,42
25,10,65,98 to 99,"CS(=O)(=O)c1ccc(-c2cc(CO[N+](=O)[O-])nn2CC2CCCCC2)cc1 [Example 1h, 1-(1-(Cyclohexylmethyl)-3-((nitrooxy)methyl)pyrazol-5-yl)-4-(methylsulfonyl)benzene]",,
